This is an account of results in US20120322819A1, “COMPOUND CONTAINING A NOVEL 4-ALKOXYPYRIMIDINE STRUCTURE AND MEDICINE CONTAINING SAME” (KOWA COMPANY, LTD., priority 2010, published 2012).

One test has as its target T1, human PPARγ2 (Homo sapiens, UniProt P37231).
T1 construct: the amino acids 182 to 505 of human PPARγ2; expressed in transfected cells; host or cells: COST cells (so in the source)
T1 sequence (P37231 182-505): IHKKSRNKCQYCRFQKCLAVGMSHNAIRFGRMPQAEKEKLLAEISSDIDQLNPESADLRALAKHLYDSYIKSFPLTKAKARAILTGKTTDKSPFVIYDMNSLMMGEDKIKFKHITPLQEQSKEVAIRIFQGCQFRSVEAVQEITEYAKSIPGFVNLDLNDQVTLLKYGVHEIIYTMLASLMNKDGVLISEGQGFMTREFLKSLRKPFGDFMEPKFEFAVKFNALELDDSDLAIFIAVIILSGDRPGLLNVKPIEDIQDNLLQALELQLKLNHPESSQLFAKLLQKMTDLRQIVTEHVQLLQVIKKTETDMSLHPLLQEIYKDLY
The experiment in a line: PPARγ activation activity, Gal4-PPARγ2 LBD chimera luciferase transfection assay in COST cells. The class given is cell-based. Conditions: Gal4 (aa 1-147)/human PPARγ2 LBD (aa 182-505) chimera, luciferase reporter, 16 hours, rosiglitazone (3 to 10 μmol/L) = 100%, read-out: EC50 (50% effective concentration, PPARγ activation). The method, then:
PPARγ Activation Activity
The agonistic activity of the compounds of the invention on PPARγ was measured based on the transfection assay using COST cells (DS Pharma Biomedical Co., Ltd., Osaka, Japan), which are the cell line derived from the kidney of the African green monkey. COST cells were cultured under 5% CO2 concentration, and DMEM medium containing 10% fetal bovine serum, glutamic acid, and antibiotics was used as a medium.
As an expression vector, a chimera in which DNA binding domain of Ga14, which is a yeast transcription factor, and ligand binding domain of human PPARγ2 are fused, i.e., a fused product between the amino acids 1 to 147 of Gal4 transcription factor and the amino acids 182 to 505 of human PPARγ2, was used. Furthermore, as a reporter vector, a firefly luciferase containing five copies of Gal4 recognition sequence in the promoter region was used. Plasmid transfection to the cells was performed according to a method which uses jetPEI (trade name, manufactured by Funakoshi Co., Ltd., Tokyo, Japan). Furthermore, β-galactosidase expression vector was employed as an internal standard.
After the transfection of the cells, the medium was replaced with a DMEM medium (containing 1% serum) added with the test compound, and the cells were further cultured for 16 hours. After that, the luciferase activity and β-galactosidase activity in the cell lysis solution were measured.
For the present test, dimethylsulfoxide (DMSO) was used for dissolution and dilution of the test compounds, and during the cell treatment, the DMSO concentration in DMEM medium (containing 1% serum) was adjusted to 0.1%. As a positive compound, rosiglitazone (trade name, manufactured by ALEXIS Corporation, Switzerland) was used. The percentage (%) of the luciferase activity of the each test compound (1 to 30 μmol/L) was calculated when the luciferase activity of rosiglitazone (3 to 10 μmol/L) is 100% and the luciferase activity in the absence of the test compound is 0%. The 50% effective concentration of the test compound (EC50, 50% effect concentration) was calculated by using SAS Preclinical Package Ver 5.0 (trade name, manufactured by SAS institute Japan Co., Tokyo, Japan), which is a statistical analysis program.
In general terms: Reporter assays use an easily measured gene product as a stand-in for the process of interest.

In test [1] the target is T2, angiotensin II type 1 receptor (Oryctolagus cuniculus, UniProt P34976).
T2 construct: By using a specimen of isolated rabbit blood vessels; from tissue; host or cells: rabbit thoracic aorta ring (New Zealand White, male)
T2 sequence (P34976 1-359): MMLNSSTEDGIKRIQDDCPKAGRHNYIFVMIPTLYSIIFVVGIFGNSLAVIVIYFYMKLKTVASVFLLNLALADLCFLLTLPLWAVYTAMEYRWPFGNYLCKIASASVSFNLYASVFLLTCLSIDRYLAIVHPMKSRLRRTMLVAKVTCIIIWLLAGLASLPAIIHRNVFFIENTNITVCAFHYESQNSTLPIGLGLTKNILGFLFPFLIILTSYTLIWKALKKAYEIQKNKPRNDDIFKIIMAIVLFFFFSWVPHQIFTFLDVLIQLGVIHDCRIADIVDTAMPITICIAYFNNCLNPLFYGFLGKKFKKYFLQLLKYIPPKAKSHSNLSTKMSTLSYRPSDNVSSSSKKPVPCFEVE
Briefly: Angiotensin II antagonistic activity in isolated rabbit blood vessels (angiotensin II-induced contraction of thoracic aorta ring). Conditions: angiotensin II (10 nM)-induced contraction, compound 1 nmol/L to 10 μmol/L, 37° C., read-out: IC50 (50% inhibition concentration of angiotensin II-induced contraction). An excerpt:
Angiotensin II Antagonistic Activity in Isolated Rabbit Blood Vessels
By using a specimen of isolated rabbit blood vessels, antagonistic activity of the compounds of the invention against angiotensin II type 1 receptor was estimated from a dose-response curve of angiotensin II-induced blood vessel contraction. Specifically, the specimen of thoracic aorta ring of a rabbit (New Zealand White: male, 2.4 to 3.0 kg) was suspended in a magnus bath filled with Krebs-Henseleite buffer (composition: 118 mM NaCl, 4.7 mM KCl, 2.55 mM CaCl2, 1.18 mM MgSO4, 1.18 mM KH2PO4, 24.88 mM NaHCO3, and 11.1 mM D-glucose), and angiotensin II (10 nM)-induced contraction was obtained in the presence of the compounds of each example (1 nmol/L to 10 μmol/L). During the measurement, the inside temperature of the magnus bath was maintained at 37° C. and the bath was continuously ventilated with a sufficient amount of mixed gas (95% O2 and 5% CO2). The angiotensin II-induced contraction was converted into a relative value (%) that is based on the angiotensin II (10 nM)—induced contraction in the absence of the compounds of each example. From the concentration-response curve obtained therefrom, 50% inhibition concentration (IC50 value) was calculated by using SAS Preclinical Package Ver 5.0 (trade name, manufactured by SAS institute Japan Co., Tokyo, Japan), which is a statistical analysis program.

Molecules are shown by their SMILES.

Take `CCCCc1nc(C)nc(OC(C(=O)O)c2ccccc2)c1Cc1ccc(-c2ccccc2-c2noc(=O)[nH]2)cc1` (stereo not drawn) [Example 26, 2-{{6-butyl-2-methyl-5-{[2′-(5-oxo-4,5-dihydro-1,2,4-oxadiazol-3-yl)-[1,1-biphenyl]-4-yl]methyl}pyrimidin-4-yl}oxy}-2-phenylacetic acid]: the EC50 on human PPARγ2 was found to be 2920 nM. The IC50 in test [1] amounted to 380 nM.

In the case of `CCCCc1nc(C)nc(OCC(=O)N2CCCCC2)c1Cc1ccc(-c2ccccc2-c2noc(=O)[nH]2)cc1` [Example 30], the EC50 on human PPARγ2 is 1210 nM. Moreover, in test [1], the IC50 was 230 nM.

Take `CCCCc1nc(C)nc(OCCOC)c1Cc1ccc(-c2ccccc2-c2noc(=O)[nH]2)cc1` [Example 33, 3-{4′-{[4-butyl-6-(2-methoxyethoxy)-2-methylpyrimidin-5-yl]methyl}-[1,1′-biphenyl]-2-yl}-1,2,4-oxadiazol-5(4H)-one]: the EC50 at human PPARγ2 was 920 nM. Further, the IC50 in test [1] amounted to 480 nM.
